Experimental data reported in ChEMBL document CHEMBL1126120, “Synthesis and biological evaluation of dihydroeptastatin, a novel inhibitor of 3-hydroxy-3-methylglutaryl coenzyme A reductase” (J Med Chem, 1992).

Columns and labels:
HES = experiment: Concentration required to inhibit HMG-CoA reductase by 50% was determined in HES 9 cell line; type: functional, cell-based; conditions: Homo sapiens
[1] = target: T1, 3-hydroxy-3-methylglutaryl-coenzyme A reductase (Homo sapiens, UniProt P04035); experiment: Concentration required to inhibit HMG-CoA reductase by 50% was determined in Hep G2 cell line; type: functional, cell-based, HepG2
T1 sequence (P04035 whole entry): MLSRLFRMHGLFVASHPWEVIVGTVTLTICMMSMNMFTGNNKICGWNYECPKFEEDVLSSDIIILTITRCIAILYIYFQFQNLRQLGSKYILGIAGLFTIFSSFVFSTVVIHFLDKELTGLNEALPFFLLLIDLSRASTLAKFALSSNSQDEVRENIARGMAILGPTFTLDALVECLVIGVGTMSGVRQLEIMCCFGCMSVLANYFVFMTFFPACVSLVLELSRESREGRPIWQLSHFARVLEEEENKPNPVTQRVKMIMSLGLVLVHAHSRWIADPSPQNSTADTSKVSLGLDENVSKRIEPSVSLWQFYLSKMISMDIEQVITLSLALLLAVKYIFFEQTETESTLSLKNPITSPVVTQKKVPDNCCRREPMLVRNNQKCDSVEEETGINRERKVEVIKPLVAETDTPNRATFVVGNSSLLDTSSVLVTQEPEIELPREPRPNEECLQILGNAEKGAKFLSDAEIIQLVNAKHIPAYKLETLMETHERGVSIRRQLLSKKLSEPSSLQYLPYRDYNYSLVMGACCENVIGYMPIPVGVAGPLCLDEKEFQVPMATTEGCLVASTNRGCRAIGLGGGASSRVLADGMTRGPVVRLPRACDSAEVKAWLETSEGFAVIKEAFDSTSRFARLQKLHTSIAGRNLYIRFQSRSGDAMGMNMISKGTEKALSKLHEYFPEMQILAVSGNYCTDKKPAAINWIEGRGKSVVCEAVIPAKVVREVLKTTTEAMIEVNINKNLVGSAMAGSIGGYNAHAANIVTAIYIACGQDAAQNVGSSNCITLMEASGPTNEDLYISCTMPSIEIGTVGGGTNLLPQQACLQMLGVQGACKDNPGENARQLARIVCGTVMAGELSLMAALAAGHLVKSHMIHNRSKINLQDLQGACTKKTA

[2] = target: T2, 3-hydroxy-3-methylglutaryl-coenzyme A reductase (Rattus norvegicus, UniProt P51639); experiment: Inhibitory activity against HMG-CoA reductase from rat liver microsomal preparation
T2 sequence (P51639 whole entry): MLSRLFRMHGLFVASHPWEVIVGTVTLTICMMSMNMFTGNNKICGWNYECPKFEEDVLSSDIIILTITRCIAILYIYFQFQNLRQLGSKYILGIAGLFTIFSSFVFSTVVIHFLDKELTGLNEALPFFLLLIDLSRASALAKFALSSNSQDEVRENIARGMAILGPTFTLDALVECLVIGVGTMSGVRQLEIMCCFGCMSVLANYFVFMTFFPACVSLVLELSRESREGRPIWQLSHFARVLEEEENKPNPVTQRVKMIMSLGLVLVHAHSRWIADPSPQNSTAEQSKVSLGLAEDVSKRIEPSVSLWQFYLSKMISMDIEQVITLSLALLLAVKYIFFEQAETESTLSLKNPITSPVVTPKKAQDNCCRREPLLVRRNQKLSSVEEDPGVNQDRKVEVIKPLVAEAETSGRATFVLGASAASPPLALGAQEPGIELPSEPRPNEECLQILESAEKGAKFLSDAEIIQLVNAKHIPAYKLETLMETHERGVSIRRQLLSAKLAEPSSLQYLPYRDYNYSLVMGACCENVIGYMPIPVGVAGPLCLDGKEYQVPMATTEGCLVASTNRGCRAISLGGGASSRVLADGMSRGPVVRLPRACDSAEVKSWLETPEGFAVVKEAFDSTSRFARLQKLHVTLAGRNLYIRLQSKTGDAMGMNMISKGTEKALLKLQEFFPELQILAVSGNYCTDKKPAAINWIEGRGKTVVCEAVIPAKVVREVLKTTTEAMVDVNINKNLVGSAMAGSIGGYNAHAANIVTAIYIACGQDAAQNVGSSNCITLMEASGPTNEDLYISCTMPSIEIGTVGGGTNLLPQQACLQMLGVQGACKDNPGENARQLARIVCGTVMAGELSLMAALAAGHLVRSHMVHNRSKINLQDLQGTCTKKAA

SMILES | IC50 (HES) [nM] | IC50 [1] [nM] | IC50 [2] [nM]
CC[C@H](C)C(=O)O[C@H]1C[C@H](O)C[C@@H]2C=C[C@H](C)[C@H](CCC3C[C@@H](O)CC(=O)O3)[C@@H]12 (stereo not given in full) | 7000 | 1400 | –
CC[C@H](C)C(=O)O[C@H]1C[C@H](O)C[C@@H]2C=C[C@H](C)[C@H](CC[C@H](O)C[C@H](O)CC(=O)O)[C@@H]12 | 7280 | 2220 | 14
CC[C@H](C)C(=O)O[C@H]1C[C@@H](C)C=C2C=C[C@H](C)[C@H](CC[C@@H](O)C[C@@H](O)CC(=O)O)[C@H]21 | 17 | 29 | –
CCC(C)(C)C(=O)O[C@H]1C[C@@H](C)C=C2C=C[C@H](C)[C@H](CC[C@@H](O)C[C@@H](O)CC(=O)O)[C@H]21 | 6.5 | 12 | –
CC[C@H](C)C(=O)O[C@H]1C[C@@H](C)C=C2C=C[C@H](C)[C@H](CC[C@@H]3C[C@@H](O)CC(=O)O3)[C@H]21 [LOVASTATIN] | 13 | – | –
